# Experimental data published in PubChem BioAssay AID624350 (Johns Hopkins Ion Channel Center, 2012).
# Where “and” joins values, the source holds several entries; their conditions need not be identical. Equal values may be shown once. Calls of active or inactive are those of the source.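 How the source made its calls: active means over 50% block of the Kir2.1 potassium channel by compound at 30 µM; inactive means the rest.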
# Molecular target: Inward rectifier potassium channel 2 (Mus musculus) (UniProt P35561)
# Experiment: blockers of inward rectifier channel Kir2.1 – cell-based, HEK293, thallium flux, FluxOR fluorescence, dose response (AID 624350)
# Details: HEK293 Kir2.1, FluxOR thallium flux fluorescence, 20 min
# Chain of Inward rectifier potassium channel 2 (Mus musculus) (P35561 whole entry, looked up): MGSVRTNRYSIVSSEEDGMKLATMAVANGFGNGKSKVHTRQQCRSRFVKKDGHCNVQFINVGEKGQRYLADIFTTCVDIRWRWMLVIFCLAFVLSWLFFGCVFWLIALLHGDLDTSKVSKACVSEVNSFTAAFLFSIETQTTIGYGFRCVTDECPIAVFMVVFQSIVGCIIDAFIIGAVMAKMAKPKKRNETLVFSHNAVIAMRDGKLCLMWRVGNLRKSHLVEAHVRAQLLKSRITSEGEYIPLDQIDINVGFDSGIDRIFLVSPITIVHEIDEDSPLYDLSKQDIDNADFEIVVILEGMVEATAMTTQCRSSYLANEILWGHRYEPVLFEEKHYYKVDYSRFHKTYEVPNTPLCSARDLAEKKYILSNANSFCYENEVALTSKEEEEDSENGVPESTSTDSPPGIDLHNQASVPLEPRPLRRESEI
SMILES,IC50,outcome
O=S(=O)(c1ccccc1Br)N1CCCc2ccccc21,10 µM,
O=[N+]([O-])c1ccc(CNS(=O)(=O)c2ccc(Br)cc2)cc1,17.8 µM,
O=S(=O)(NCc1cccc(F)c1)c1ccc(Br)cc1,,inactive
O=S(=O)(c1ccc(Br)cc1)N1CCN(c2ccc(Cl)c(Cl)c2)CC1,,inactive
O=S(=O)(NCc1cc(F)cc(F)c1)c1ccc(Br)cc1,15.6 µM,
O=S(=O)(c1ccc(Br)cc1)N1CCC(c2ccccc2)CC1,,inactive
O=S(=O)(NCc1ccco1)c1ccc(Br)cc1,,inactive
O=S(=O)(c1ccc(Br)cc1)N1CCCCC1,,inactive
O=S(=O)(c1ccc(F)cc1)N1CCCc2ccccc21,11.9 µM,
Cc1ccc(C)c(OCCCNc2ccccc2)c1,,inactive
O=S(=O)(NCc1ccc(F)cc1F)c1ccc(Br)cc1,16.3 µM,
O=S(=O)(c1cccc(F)c1)N1CCCc2ccccc21,12.6 µM,
O=S(=O)(c1cccc(Br)c1)N1CCCc2ccccc21,12.6 µM,
c1ccc(Cc2nc3ccccc3n2-c2ccccc2)cc1,15 µM,
CC(C)Cn1c(Cc2ccccc2)nc2ccccc21,28.4 µM,
C[C@@H](NS(=O)(=O)c1ccc(Br)cc1)c1cccc2ccccc12,9.46 µM,
O=S(=O)(NCc1cccc2ccccc12)c1ccc(Br)cc1,,inactive
COc1ccc(CCNS(=O)(=O)c2ccc(Br)cc2)cc1OC,,inactive
O=S(=O)(NCc1ccc(F)c(F)c1)c1ccc(Br)cc1,11.3 µM,
CCN(CC)CCCOc1cc(C)ccc1C,,inactive
Cc1ccc(C)c(OCCCNC[C@@H](C)O)c1,inactive,

SMILES,IC50,outcome
O=S(=O)(NCCc1ccccc1)c1ccc(Br)cc1,,inactive
Cc1ccc(C)c(OCCCNCC2CCCCC2)c1,18.9 µM,
COc1ccc(N2CCN(S(=O)(=O)c3ccc(Br)cc3)CC2)cc1,,inactive
c1ccc(Cc2nc3ccccc3n2C2CC2)cc1,,inactive
O=S(=O)(NCc1ccccc1)c1ccc(Br)cc1,,inactive
COCc1nc2ccccc2n1CC(C)C,,inactive
Cc1ccc(C)c(OCCCN(C)Cc2ccccc2)c1,11.9 µM,
O=S(=O)(N[C@H]1c2ccccc2C[C@H]1O)c1ccc(Br)cc1,,inactive
Cc1ccc(C)c(OCCCN2CCOCC2)c1,,inactive
CN(Cc1ccccc1)S(=O)(=O)c1ccc(Br)cc1,,inactive
Cc1ccc(C)c(OCCCNCc2ccc(Cl)c(Cl)c2)c1,13.4 µM,
Cc1ccc(C)c(OCCCN2CCCCC2)c1,,inactive
O=S(=O)(NC1Cc2ccccc2C1)c1ccc(Br)cc1,28.4 µM,
COCc1nc2ccccc2n1-c1ccccc1,,inactive
COCc1nc2ccccc2n1C1CC1,,inactive
O=S(=O)(c1ccccc1F)N1CCCc2ccccc21,11.2 µM,
O=S(=O)(NCc1ccccn1)c1ccc(Br)cc1,,inactive
C[C@@H](c1ccccc1)N(Cc1ccccc1)S(=O)(=O)c1ccc(Br)cc1,,inactive
O=S(=O)(NCCc1c[nH]c2ccccc12)c1ccc(Br)cc1,13.4 µM,
Cc1ccc(C)c(OCCCNCc2ccco2)c1,inactive,
Cc1ccc(C)c(OCCCNCCO)c1,,inactive

SMILES,IC50,outcome
Cc1ccc(C)c(OCCCNC[C@H](C)O)c1,,inactive
Cc1ccc(C)c(OCCCNCc2cccc3ccccc23)c1,11.2 µM,
Cc1ccc(C)c(OCCCNCc2ccccc2)c1,8.91 µM,
O=S(=O)(NCC(c1ccccc1)c1ccccc1)c1ccc(Br)cc1,,inactive
COCc1nc2ccccc2n1CCN1CCOCC1,,inactive
Cc1ccc(C)c(OCCCOCc2ccccc2)c1,,inactive
O=C(c1ccc(F)cc1)N1CCCc2ccccc21,,inactive
O=S(=O)(c1ccc(Br)cc1)N1CCCc2ccccc21,15.8 µM and 13.4 µM,
C[C@H](NC(=O)c1ccc(Br)cc1)c1ccccc1,,inactive
CCN(Cc1ccncc1)S(=O)(=O)c1ccc(Br)cc1,23 µM,
O=S(=O)(NCc1cccnc1)c1ccc(Br)cc1,,inactive
COCc1nc2ccccc2n1Cc1ccccc1,,inactive
CN1CCN(S(=O)(=O)c2ccc(Br)cc2)CC1,,inactive
Cc1ccc(C)c(OCCCNCCc2ccccc2)c1,10.6 µM,
C[C@@H](NC(=O)c1ccc(Br)cc1)c1ccccc1,,inactive
c1ccc(Cc2nc3ccccc3n2Cc2ccccc2)cc1,29.9 µM,
O=S(=O)(c1ccc(Br)cc1)N1CCc2ccccc21,17.9 µM,
Cc1ccc(C)c(OCCCN(C)CCO)c1,,inactive
O=S(=O)(NCc1ccncc1)c1ccc(Br)cc1,,inactive
COc1ccccc1CCNS(=O)(=O)c1ccc(Br)cc1,7.81 µM,
